Laboratory results: paper PMC8371461 (Frontiers in Pharmacology, 2021)

Assays:
[1] = target: T1, ABL1(Q252H)-phosphorylated (Homo sapiens, UniProt P00519, Q252H); test: kinome scan; format: binding; settings: 10 µM
T1 construct: purchased DiscoverX (KINOMEscan)

[2] = target: T2, CAMK2G (Homo sapiens, UniProt Q13555); test: kinome scan; format: binding; settings: 10 µM
T2 construct: purchased DiscoverX (KINOMEscan)

[3] = target: T3, CAMK4 (Homo sapiens, UniProt Q16566); test: kinome scan; format: binding; settings: 10 µM
T3 construct: purchased DiscoverX (KINOMEscan)

[4] = target: T4, CDK2 (Homo sapiens, UniProt P24941); test: kinome scan; format: binding; settings: 10 µM
T4 construct: purchased DiscoverX (KINOMEscan)

[5] = target: T5, DRAK1 (Homo sapiens, UniProt Q9UEE5); test: kinome scan; format: binding; settings: 10 µM
T5 construct: purchased DiscoverX (KINOMEscan)

[6] = target: T6, DYRK2 (Homo sapiens, UniProt Q92630); test: kinome scan; format: binding
T6 construct: purchased DiscoverX (KINOMEscan)
T6 sequence (Q92630 1-601): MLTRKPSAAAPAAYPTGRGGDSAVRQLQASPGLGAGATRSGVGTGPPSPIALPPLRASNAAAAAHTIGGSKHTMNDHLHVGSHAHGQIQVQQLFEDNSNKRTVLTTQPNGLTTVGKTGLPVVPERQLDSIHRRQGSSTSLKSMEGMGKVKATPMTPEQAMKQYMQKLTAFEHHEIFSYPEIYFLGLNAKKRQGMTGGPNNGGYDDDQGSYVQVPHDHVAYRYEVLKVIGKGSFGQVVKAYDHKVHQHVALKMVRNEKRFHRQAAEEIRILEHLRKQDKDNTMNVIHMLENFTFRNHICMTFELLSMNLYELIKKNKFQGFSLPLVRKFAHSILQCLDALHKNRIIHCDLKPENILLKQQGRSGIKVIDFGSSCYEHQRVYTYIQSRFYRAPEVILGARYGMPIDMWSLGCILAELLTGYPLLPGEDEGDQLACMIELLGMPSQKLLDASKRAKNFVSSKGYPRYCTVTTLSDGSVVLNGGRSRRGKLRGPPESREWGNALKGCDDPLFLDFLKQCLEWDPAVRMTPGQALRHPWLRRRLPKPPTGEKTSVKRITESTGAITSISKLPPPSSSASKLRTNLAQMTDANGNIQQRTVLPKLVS

[7] = target: T7, EGFR(G719C) (Homo sapiens, UniProt P00533, G719C); test: kinome scan; format: binding; settings: 10 µM
T7 construct: purchased DiscoverX (KINOMEscan)

[8] = target: T8, EGFR(G719S) (Homo sapiens, UniProt P00533, G719S); test: kinome scan; format: binding; settings: 10 µM
T8 construct: purchased DiscoverX (KINOMEscan)

[9] = target: T9, EIF2AK1 (Homo sapiens, UniProt Q9BQI3); test: kinome scan; format: binding; settings: 10 µM
T9 construct: purchased DiscoverX (KINOMEscan)

[10] = target: T10, EPHB4 (Homo sapiens, UniProt P54760); test: kinome scan; format: binding; settings: 10 µM
T10 construct: purchased DiscoverX (KINOMEscan)

[11] = target: T11, FLT3(D835Y) (Homo sapiens, UniProt P36888, D835Y); test: kinome scan; format: binding; settings: 10 µM
T11 construct: purchased DiscoverX (KINOMEscan)

[12] = target: T12, HPK1 (Homo sapiens, UniProt Q92918); test: kinome scan; format: binding; settings: 10 µM
T12 construct: purchased DiscoverX (KINOMEscan)

[13] = target: T13, JAK3(JH1domain-catalytic) (Homo sapiens, UniProt P52333); test: kinome scan; format: binding; settings: 10 µM
T13 construct: JAK3(JH1domain-catalytic); purchased DiscoverX (KINOMEscan)

[14] = target: T14, KIT(D816H) (Homo sapiens, UniProt P10721, D816H); test: kinome scan; format: binding; settings: 10 µM
T14 construct: purchased DiscoverX (KINOMEscan)

[15] = target: T15, KIT(V559D) (Homo sapiens, UniProt P10721, V559D); test: kinome scan; format: binding
T15 construct: purchased DiscoverX (KINOMEscan)

[16] = target: T16, MARK4 (Homo sapiens, UniProt Q96L34); test: kinome scan; format: binding; settings: 10 µM
T16 construct: purchased DiscoverX (KINOMEscan)

[17] = target: T17, MEK2 (Homo sapiens, UniProt P36507); test: kinome scan; format: binding; settings: 10 µM
T17 construct: purchased DiscoverX (KINOMEscan)

[18] = target: T18, MERTK (Homo sapiens, UniProt Q12866); test: kinome scan; format: binding; settings: 10 µM
T18 construct: purchased DiscoverX (KINOMEscan)

[19] = target: T19, MKNK1 (Homo sapiens, UniProt Q9BUB5); test: kinome scan; format: binding; settings: 10 µM
T19 construct: purchased DiscoverX (KINOMEscan)

[20] = target: T20, MLK2 (Homo sapiens, UniProt Q02779); test: kinome scan; format: binding; settings: 10 µM
T20 construct: purchased DiscoverX (KINOMEscan)

[21] = target: T21, PHKG2 (Homo sapiens, UniProt P15735); test: kinome scan; format: binding; settings: 10 µM
T21 construct: purchased DiscoverX (KINOMEscan)

[22] = target: T22, PIK3C2B (Homo sapiens, UniProt O00750); test: kinome scan; format: binding; settings: 10 µM
T22 construct: purchased DiscoverX (KINOMEscan)

[23] = target: T23, PIK3CD (Homo sapiens, UniProt O00329); test: kinome scan; format: binding; settings: 10 µM
T23 construct: purchased DiscoverX (KINOMEscan)

[24] = target: T24, PKMYT1 (Homo sapiens, UniProt Q99640); test: kinome scan; format: binding; settings: 10 µM
T24 construct: purchased DiscoverX (KINOMEscan)

[25] = target: T25, PKNB(M.tuberculosis) (Mycobacterium tuberculosis, UniProt P9WI81); test: kinome scan; format: binding; settings: 10 µM
T25 construct: purchased DiscoverX (KINOMEscan)

[26] = target: T26, PRKCQ (Homo sapiens, UniProt Q04759); test: kinome scan; format: binding; settings: 10 µM
T26 construct: purchased DiscoverX (KINOMEscan)

[27] = target: T27, PRKD3 (Homo sapiens, UniProt O94806); test: kinome scan; format: binding; settings: 10 µM
T27 construct: purchased DiscoverX (KINOMEscan)

[28] = target: T28, RSK4(Kin.Dom.2-C-terminal) (Homo sapiens, UniProt Q9UK32); test: kinome scan; format: binding; settings: 10 µM
T28 construct: RSK4(Kin.Dom.2-C-terminal); purchased DiscoverX (KINOMEscan)

[29] = target: T29, SRPK3 (Homo sapiens, UniProt Q9UPE1); test: kinome scan; format: binding; settings: 10 µM
T29 construct: purchased DiscoverX (KINOMEscan)

[30] = target: T30, TAOK2 (Homo sapiens, UniProt Q9UL54); test: kinome scan; format: binding; settings: 10 µM
T30 construct: purchased DiscoverX (KINOMEscan)

[31] = tested on: Estrogen receptor alpha signaling; design: method as in CHEMBL1794542; settings: reported activity, data mining; ref CHEMBL1794542; cited from earlier work
[32] = tested on: Euchromatic histone-lysine N-methyltransferase 2; design: method as in PubChem Bioassay ID 504,332; settings: reported activity, data mining; ref PubChem Bioassay ID 504,332; cited from earlier work

T15 sequence (P10721 26-976 V559D): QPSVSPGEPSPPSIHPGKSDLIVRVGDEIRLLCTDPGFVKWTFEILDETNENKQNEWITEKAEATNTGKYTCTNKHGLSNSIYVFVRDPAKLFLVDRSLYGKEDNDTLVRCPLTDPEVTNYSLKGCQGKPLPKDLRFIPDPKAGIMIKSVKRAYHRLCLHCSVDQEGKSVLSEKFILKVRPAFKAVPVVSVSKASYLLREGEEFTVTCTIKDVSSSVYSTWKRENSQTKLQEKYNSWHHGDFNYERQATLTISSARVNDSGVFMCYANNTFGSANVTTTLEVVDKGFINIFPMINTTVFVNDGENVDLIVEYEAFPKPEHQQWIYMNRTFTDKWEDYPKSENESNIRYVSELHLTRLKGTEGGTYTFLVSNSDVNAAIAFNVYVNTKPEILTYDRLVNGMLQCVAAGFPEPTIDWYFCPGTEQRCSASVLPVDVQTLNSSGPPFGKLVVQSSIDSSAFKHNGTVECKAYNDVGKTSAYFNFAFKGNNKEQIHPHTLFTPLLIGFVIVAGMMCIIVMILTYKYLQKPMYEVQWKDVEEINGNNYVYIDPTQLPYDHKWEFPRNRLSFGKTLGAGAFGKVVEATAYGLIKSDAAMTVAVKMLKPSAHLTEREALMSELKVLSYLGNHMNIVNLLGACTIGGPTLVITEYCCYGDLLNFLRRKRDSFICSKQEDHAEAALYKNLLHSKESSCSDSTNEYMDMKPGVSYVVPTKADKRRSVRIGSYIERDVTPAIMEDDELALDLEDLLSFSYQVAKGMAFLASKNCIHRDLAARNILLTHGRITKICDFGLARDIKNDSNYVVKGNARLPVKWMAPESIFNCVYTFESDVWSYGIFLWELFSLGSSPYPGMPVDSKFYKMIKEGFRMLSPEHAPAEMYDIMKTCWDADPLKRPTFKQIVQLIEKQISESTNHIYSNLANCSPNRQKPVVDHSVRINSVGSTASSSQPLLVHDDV
T19 sequence (Q9BUB5 whole entry): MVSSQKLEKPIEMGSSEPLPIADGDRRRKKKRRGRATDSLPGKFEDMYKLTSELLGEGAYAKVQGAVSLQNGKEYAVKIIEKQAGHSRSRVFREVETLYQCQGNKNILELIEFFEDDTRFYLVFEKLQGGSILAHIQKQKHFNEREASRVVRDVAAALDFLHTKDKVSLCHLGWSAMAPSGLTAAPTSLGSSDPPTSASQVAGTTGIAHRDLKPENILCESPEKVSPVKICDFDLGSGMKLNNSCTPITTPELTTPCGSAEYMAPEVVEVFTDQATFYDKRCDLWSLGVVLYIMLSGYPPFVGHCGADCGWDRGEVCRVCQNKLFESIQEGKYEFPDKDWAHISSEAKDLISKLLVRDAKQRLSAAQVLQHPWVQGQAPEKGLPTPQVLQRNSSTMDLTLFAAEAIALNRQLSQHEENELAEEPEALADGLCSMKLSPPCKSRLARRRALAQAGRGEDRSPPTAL
T18 sequence (Q12866 21-999): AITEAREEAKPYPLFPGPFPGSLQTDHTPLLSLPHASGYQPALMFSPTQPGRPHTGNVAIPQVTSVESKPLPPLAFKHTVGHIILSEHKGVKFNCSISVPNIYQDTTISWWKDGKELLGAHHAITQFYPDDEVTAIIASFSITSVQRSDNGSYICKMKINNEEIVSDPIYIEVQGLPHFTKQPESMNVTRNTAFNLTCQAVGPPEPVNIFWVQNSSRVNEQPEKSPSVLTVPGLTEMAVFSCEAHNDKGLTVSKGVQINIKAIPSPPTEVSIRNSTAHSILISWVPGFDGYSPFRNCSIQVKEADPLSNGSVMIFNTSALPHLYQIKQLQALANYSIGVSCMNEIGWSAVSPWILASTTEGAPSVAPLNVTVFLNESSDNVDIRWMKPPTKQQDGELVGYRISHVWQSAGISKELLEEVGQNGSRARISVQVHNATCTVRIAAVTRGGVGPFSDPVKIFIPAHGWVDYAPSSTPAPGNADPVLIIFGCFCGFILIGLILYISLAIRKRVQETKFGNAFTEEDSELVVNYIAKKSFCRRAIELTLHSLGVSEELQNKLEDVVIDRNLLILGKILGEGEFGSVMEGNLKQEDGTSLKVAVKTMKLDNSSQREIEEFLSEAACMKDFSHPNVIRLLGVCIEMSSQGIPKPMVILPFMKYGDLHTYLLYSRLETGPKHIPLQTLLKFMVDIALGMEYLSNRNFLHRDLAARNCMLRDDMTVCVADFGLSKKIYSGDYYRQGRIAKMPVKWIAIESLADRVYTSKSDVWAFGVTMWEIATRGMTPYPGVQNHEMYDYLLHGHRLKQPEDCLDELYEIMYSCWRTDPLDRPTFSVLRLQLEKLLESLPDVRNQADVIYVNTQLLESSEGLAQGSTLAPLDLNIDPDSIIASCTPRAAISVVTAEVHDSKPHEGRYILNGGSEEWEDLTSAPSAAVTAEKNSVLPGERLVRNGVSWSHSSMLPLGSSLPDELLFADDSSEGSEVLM
T28 sequence (Q9UK32 426-683 limits assumed): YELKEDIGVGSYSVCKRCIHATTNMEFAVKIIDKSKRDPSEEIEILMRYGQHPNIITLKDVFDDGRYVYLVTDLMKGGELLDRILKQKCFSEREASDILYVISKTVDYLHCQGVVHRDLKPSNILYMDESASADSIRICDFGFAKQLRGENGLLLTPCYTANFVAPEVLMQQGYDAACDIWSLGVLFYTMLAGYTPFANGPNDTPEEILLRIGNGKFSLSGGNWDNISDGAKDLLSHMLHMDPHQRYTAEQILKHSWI
T10 sequence (P54760 16-987): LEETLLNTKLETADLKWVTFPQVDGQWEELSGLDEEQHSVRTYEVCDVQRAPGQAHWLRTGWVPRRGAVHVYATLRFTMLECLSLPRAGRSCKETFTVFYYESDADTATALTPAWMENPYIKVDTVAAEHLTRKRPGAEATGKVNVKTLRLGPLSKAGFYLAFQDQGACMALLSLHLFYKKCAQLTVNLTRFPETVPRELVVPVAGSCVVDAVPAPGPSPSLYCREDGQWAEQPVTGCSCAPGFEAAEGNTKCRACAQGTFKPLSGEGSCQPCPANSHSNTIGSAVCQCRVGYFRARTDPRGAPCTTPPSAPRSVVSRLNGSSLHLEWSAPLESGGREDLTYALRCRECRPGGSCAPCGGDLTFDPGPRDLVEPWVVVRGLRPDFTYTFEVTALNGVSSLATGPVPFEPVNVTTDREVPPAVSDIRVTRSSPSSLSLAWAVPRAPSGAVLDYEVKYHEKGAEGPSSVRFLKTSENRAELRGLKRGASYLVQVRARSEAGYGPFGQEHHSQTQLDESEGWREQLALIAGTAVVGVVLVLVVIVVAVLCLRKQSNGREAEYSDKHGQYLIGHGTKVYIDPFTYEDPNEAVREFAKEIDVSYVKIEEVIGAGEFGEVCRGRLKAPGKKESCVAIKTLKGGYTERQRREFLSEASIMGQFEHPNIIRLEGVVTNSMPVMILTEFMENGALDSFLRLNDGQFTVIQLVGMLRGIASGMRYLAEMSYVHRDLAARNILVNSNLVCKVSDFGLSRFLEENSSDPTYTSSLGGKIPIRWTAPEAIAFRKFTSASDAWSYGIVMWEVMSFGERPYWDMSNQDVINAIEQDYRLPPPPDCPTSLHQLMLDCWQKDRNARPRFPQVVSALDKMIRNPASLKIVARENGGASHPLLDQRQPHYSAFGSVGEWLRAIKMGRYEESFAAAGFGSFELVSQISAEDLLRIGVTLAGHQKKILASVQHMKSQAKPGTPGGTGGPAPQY
T7 sequence (P00533 25-1210 G719C): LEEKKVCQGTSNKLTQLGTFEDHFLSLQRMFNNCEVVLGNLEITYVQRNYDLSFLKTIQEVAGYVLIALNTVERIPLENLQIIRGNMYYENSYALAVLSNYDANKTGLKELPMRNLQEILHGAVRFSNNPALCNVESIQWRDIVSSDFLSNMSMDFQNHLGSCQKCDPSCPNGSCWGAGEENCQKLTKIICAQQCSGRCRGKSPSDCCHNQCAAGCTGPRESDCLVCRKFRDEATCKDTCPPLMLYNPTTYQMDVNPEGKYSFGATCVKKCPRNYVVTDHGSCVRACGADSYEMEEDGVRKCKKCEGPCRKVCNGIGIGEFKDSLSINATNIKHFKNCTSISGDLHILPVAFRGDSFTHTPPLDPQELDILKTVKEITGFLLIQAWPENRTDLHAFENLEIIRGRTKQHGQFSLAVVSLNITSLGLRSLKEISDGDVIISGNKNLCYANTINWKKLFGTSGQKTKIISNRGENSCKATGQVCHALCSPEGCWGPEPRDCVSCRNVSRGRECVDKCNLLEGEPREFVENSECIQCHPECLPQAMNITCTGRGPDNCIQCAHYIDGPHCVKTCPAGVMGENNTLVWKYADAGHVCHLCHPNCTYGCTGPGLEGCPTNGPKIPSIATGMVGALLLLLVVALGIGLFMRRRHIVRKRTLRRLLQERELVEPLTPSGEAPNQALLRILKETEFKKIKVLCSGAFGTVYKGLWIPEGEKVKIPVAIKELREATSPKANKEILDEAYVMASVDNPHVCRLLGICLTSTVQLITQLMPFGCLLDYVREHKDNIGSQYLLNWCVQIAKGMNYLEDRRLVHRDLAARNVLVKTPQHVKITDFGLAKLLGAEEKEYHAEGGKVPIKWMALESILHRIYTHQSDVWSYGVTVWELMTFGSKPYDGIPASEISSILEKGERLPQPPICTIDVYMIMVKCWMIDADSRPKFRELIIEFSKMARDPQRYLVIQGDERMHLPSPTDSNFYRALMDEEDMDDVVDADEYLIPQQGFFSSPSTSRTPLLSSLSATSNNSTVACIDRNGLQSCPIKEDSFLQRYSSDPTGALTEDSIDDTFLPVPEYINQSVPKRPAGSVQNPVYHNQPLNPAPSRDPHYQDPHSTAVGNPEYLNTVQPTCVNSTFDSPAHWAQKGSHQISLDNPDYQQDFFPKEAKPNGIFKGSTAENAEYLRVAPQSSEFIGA
T14 sequence (P10721 26-976 D816H): as the sequence (P10721 26-976 V559D) above, with D534V, D791H counted along it

Nc1ccc(N=Nc2ccccc2)c(N)n1 [phenazopyridine, 2,6-diamino-3-(phenylazo)pyridine]
kinase inhibition [1]: 100
kinase inhibition [2]: 100
kinase inhibition [3]: 67
kinase inhibition [4]: 82
kinase inhibition [5]: 45
percent of control binding ([6]; 10 µM): 20
remaining binding at 10 µM ([6]; read-out: % Of control): 20%
kinase inhibition [7]: 80
kinase inhibition [8]: 92
kinase inhibition [9]: 100
kinase inhibition [10]: 95
percent of control (remaining binding) [11]: 42
kinase inhibition [12]: 67
kinase inhibition [13]: 100
kinase inhibition [14]: 85
remaining activity ([15]; KIT(V559D), 10 µM): 32
remaining binding at 10 µM ([15]; c-KIT Val559Asp, best mutant, read-out: Kinome scan (% of control at 10 µM)): 32%
kinase inhibition [16]: 84
kinase inhibition [17]: 83
kinase inhibition [18]: 100
kinase inhibition [19]: 37
kinase inhibition [20]: 100
kinase inhibition [21]: 100
kinase inhibition [22]: 70
kinase inhibition [23]: 78
kinase inhibition [24]: 85
remaining binding (% of control) [25]: 96
kinase inhibition [26]: 81
kinase inhibition [27]: 100
kinase inhibition [28]: 81
kinase inhibition [29]: 94
kinase inhibition [30]: 91
Concentration [31]: 3.1 µM
Concentration [32]: 10 µM
